Data published in patent US8389730B2, “Compositions and methods for the treatment of disease associated with TRP-P8 expression” (Dendreon Corporation, priority 2003, dated 2013).

system: Trp-p8 orthologues; test: not given; conditions: reported by McKemy et al. and Peier et al.; cited from earlier work

SMILES | Effective concentration in inducing calcium influx [µM]
CC1CCC(C(C)C)C(O)C1 (stereo not drawn) [Menthol, 2-isopropyl-5-methyl-cyclohexanol] | 10 to 100
O=C1NC(c2cccc([N+](=O)[O-])c2)=CCN1c1ccccc1O [Icilin, 1-(2-hydroxyphenyl)-4-(3-nitrophenyl)-1,2,3,6-tetrahydropyrimidine-2-one] | 0.1 to 1

target: T1, Trp-p8 (Homo sapiens, UniProt Q7Z2W7, T58I); test: Cell viability (ATP) assay for Trp-p8 antagonists: protection of CHO/Trp-p8 cells from toxic control agonist D-1607; format: cell-based; conditions: Table 2, Formula VIII antagonists; 10 μM compound plus toxic concentration of control agonist D-1607, CHO/Trp-p8 cells, 37° C.; ATP level relative to DMSO
T1 construct: expressed in transfected cells
T1 sequence (Q7Z2W7 whole entry T58I): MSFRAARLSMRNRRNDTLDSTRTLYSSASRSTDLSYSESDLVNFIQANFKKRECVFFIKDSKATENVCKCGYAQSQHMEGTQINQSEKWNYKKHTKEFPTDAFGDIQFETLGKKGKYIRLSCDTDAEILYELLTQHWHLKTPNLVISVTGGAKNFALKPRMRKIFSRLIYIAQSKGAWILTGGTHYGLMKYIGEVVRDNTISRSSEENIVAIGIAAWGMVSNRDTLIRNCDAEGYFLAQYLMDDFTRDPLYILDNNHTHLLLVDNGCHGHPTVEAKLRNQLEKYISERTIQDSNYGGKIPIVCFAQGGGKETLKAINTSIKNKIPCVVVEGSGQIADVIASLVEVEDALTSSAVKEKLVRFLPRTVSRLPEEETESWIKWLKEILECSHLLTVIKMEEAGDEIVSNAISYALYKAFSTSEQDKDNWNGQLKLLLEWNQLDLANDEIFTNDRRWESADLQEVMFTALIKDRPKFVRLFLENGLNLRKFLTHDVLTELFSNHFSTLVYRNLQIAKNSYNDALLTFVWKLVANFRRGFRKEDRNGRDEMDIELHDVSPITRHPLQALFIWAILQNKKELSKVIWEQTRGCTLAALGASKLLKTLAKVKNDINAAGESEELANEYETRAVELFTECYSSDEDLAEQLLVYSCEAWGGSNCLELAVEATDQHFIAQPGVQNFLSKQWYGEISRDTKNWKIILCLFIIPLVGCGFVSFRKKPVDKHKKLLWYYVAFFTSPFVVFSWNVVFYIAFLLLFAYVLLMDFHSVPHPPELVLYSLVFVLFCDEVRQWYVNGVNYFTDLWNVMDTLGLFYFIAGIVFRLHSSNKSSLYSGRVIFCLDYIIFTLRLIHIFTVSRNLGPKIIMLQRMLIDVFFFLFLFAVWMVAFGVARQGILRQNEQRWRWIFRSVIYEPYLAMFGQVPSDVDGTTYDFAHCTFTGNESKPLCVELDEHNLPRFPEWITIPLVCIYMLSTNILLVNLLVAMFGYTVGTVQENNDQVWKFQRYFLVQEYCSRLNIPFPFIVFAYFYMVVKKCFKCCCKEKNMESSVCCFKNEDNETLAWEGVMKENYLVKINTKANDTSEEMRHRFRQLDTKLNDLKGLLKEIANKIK
Procedure: FIG. 4 is a graph depicting exemplary results from a primary screen for Trp-p8 antagonists using the ATP viability assay, described herein, with CHO/Trp-p8 cells at 37° C. CHO/Trp-p8 cells were exposed to compounds, at different concentrations, in 1% DMSO or 1% DMSO in combination with a toxic concentration of the Trp-p8 agonist 1607. The viability of cells was measured after 24-26 hours at 37° C. using the ATP assay.
As a primary screen for efficacy and specificity for agonists, both the non-transfected CHO and CHO/Trp-p8 cells were exposed to 10 μM of test compounds in 1% dimethylsulfoxide (DMSO) or 1% DMSO (control) in a 96-well black walled, black-bottomed, cell-culture treated plate. DMSO was the solvent for all of the compounds tested. After 24-26 hours at 37° C., the cells were lysed and ATP concentration determined via a chemiluminescence assay using a commercially available reagent kit—Cell Titer-Glo (Promega; Madison, Wis.). […] (EC50 is defined herein as the agonist concentration at which there is a 50% reduction in cell viability).
Trp-p8 antagonists were identified by employing a cell viability assay with CHO/Trp-p8 cells at 37° C. (see Example 7) with the following modification. Within the context of the present invention, compounds that protect CHO/Trp-p8 cells from the toxic effect of a control agonist thereby maintaining the viability of the CHO/Trp-p8 cell exposed to a Trp-p8 agonist is defined as antagonist. As a primary screen for antagonists, CHO/Trp-p8 cells were exposed to 10 μM of test compounds in 1% dimethylsulfoxide (DMSO) or 1% DMSO plus a toxic concentration of a control agonist, D-1607.

SMILES | Relative Viability (%) at 10 μM [%]
CC(C)[C@@H]1CC[C@@H](C)C[C@H]1NC(=O)N1c2ccccc2CC1C (stereo partly drawn) [compound 1781] | 91
CC(C)[C@@H]1CC[C@@H](C)C[C@H]1OC(=O)N1CCc2ccccc2C1 [compound 1457] | 112
CC(C)[C@@H]1CC[C@@H](C)C[C@H]1C(=O)Nc1ccc(S(=O)(=O)N2CCCCCC2)cc1 [compound 2865] | 91
CC(C)[C@@H]1CC[C@@H](C)C[C@H]1OC(=O)N1CCc2ccccc21 [compound 1504] | 90
CC(C)[C@@H]1CC[C@@H](C)C[C@H]1NS(=O)(=O)c1c(Cl)cc(Cl)cc1Cl [compound 2131] | 59
CCN(CCNC(=O)CO[C@@H]1C[C@H](C)CC[C@H]1C(C)C)c1cccc(C)c1 [compound 1937] | 101
CC(C)[C@@H]1CC[C@@H](C)C[C@H]1NC(=O)COc1ccccc1[N+](=O)[O-] [compound 2045] | 191
CC(C)[C@@H]1CC[C@@H](C)C[C@H]1NC(=O)NCCCSC1CCCCC1 [compound 1882] | 85
CC(C)[C@@H]1CC[C@@H](C)C[C@H]1NCc1c[nH]nc1-c1ccccc1 [compound 2745] | 62
CC(C)[C@@H]1CC[C@@H](C)C[C@H]1OC(=O)N1CCCc2ccccc21 [compound 1465] | 90
Cc1ccnc(N(Cc2ccccc2)C(=O)[C@@H]2C[C@H](C)CC[C@H]2C(C)C)c1 [compound 2639] | 102
CC(C)[C@@H]1CC[C@@H](C)C[C@H]1NC(=O)CCC1CCCC1 [compound 1996] | 89
CC(C)[C@@H]1CC[C@@H](C)C[C@H]1NC(=O)NCCC1=CCCCC1 [compound 1883] | 84
CC(C)[C@@H]1CC[C@@H](C)C[C@H]1NC(=O)NC1CCCCCC1 [compound 1876] | 86
CC(C)[C@@H]1CC[C@@H](C)C[C@H]1OCC(=O)NCC1(c2ccccc2)CCCC1 [compound 1745] | 88
CC(C)[C@@H]1CC[C@@H](C)C[C@H]1NC(=O)NCCN1CCCc2ccccc21 [compound 1815] | 87
CC(C)CN(CCNC(=O)CO[C@@H]1C[C@H](C)CC[C@H]1C(C)C)CC(C)C [compound 1920] | 81
CC(C)[C@@H]1CC[C@@H](C)C[C@H]1NCc1c[nH]nc1-c1ccc(F)cc1 [compound 2752] | 65
Cc1ccccc1CCNC(=O)CO[C@@H]1C[C@H](C)CC[C@H]1C(C)C [compound 1923] | 116

same assay, conditions: Table 3, Formula VII antagonists; 10 μM compound plus toxic concentration of control agonist, CHO/Trp-p8 cells, 37° C.; ATP level relative to DMSO

SMILES | Rel. Viab. (%) at 10 μM [%]
Cc1nc(N2CCOCC2)nc(N2CCN(c3ccccc3)CC2)c1[N+](=O)[O-] [compound 69] | 106
O=C1CN(c2nc3ccccc3c(=O)n2Cc2ccccc2)CC(=O)N1CCc1ccccc1 [compound 1069] | 86
Cc1nc2sc(C(c3cccc(O)c3)N3CCN(C(c4ccccc4)c4ccccc4)CC3)c(O)n2n1 (stereo not drawn) [compound 1027] | 84
COc1ccc(N2CCN(CC(O)COC3CC(C)CCC3C(C)C)CC2)cc1.Cl.Cl (stereo not drawn) [compound 93] | 111
Clc1ccccc1N1CCN(c2ncnc3c2cnn3-c2ccccc2)CC1 [compound 51] | 100
FC(F)(F)Oc1ccc(Nc2nc(N3CCCCCC3)nc(N3CCN(C45CC6CC(CC(C6)C4)C5)CC3)n2)cc1 [compound 809] | 89
Fc1ccc(N2CCN(c3ncnc4c3cnn4-c3ccccc3)CC2)cc1 [compound 159] | 95
N#Cc1nc(COc2ccccc2F)oc1N1CCN(c2ccccc2)CC1 [compound 711] | 94
O=[N+]([O-])c1cc(Cl)ccc1N1CCN(c2ccc([N+](=O)[O-])c3cccnc23)CC1 [compound 34] | 82

system: Trp-p8; test: not given; conditions: cold-sensitive neurons, Trp-p8 in Xenopus oocytes, HEK293 and CHO cells; cited from earlier work

SMILES | Higher temperature threshold reported for Trp-p8 activation
CC1CCC(C(C)C)C(O)C1 (stereo not drawn) [Menthol, 2-isopropyl-5-methyl-cyclohexanol] | 30-32 °C

target: T1, Trp-p8; test: Calcium flux assay (Fura-2) for agonists in CHO/Trp-p8 cells at 37° C.; format: cell-based; conditions: 1 μM, CHO and CHO/Trp-p8 cells
Procedure: FIGS. 2A-2C are graphs depicting Trp-p8 agonist-induced increases in intracellular calcium as determined by a calcium flux assay performed at 37° C.
Calcium influx was measured using a Flexstation Microplate Fluorescence Plate Reader (Molecular Devices; Sunnyvale, Calif.). A typical assay for calcium flux was performed as follows. Cells in DMEM/Ham's F-12 based medium, typically at a density of 30,000 cells/well/100 were plated in a 96-well black-walled, clear bottomed tissue culture plate (Greiner Bio-one) and incubated for 16-20 hours at 37° C. Cells in each well were incubated for one hour at 37° C. with a Fura2-AM Fluorescent Dye/Pluronic […] mixture (Molecular Probes; Eugene, Oreg.) and dissolved in the medium containing Probenecid. […]
Typically, the above described HEPES/HBSS-based buffer containing either no additional calcium or with calcium to increase the concentration to 2 mM and various concentrations of compounds (at 5-times the final concentrations) were added to each well using the robotic multi-channel pipettor. […] Signals were read with dual excitation wavelengths of 340 and 380 nm and emission wavelength of 510 nm with a cut-off filter at 495 nm. The signal was reported as the ratio of emission when excited at 340 nm to the emission when excited at 380 nm [Relative Fluorescence Units (RFU)]. […]

SMILES | Response to positive control in calcium flux assay (FIG. 2A)
C[C@H](CCC(=O)O)C[C@H](C)C[C@H](C)C(=O)/C=C(\O)[C@H](C)C[C@H](C)C/C=C/[C@@H](C)[C@@H](O)[C@@H](C)[C@@H](O)C[C@@H]1CC[C@@](C)([C@H]2CC[C@@](C)([C@@H](C)O)O2)O1 [Ionomycin, reference compound] | respond similarly

same assay, conditions: CHO/Trp-p8 cells

SMILES | Increase in intracellular calcium (FIG. 2C)
CC(C)[C@@H]1CC[C@@H](C)C[C@H]1C(=O)NCCc1ccccc1 [compound 1603] | specific, concentration-dependent response
